Consider ten compounds from PubChem BioAssay (NCI).

SMILES strings stand for the structures.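 96-well plates; 48 h exposure; 5 concentrations. Endpoints by linear interpolation between flanking doses. Not reached: highest tested concentration assigned. TGI: concentration producing complete growth inhibition.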

Common to all, as to experiment: NCI tumour cell line growth inhibition, 48 h
Assay [1] concerns A498 renal.
Assay [2] deals with CAKI-1 renal.
Assay [3] deals with COLO 205 colon.
The test system of assay [4] is HCT-15 colon.
The test system of assay [5] is IGROV1 ovarian.
Assay [6] has as its system KM12 colon.
For assay [7], the system named is MALME-3M melanoma.
The subject of assay [8] is MCF7 breast.
Assay [9] concerns MDA-MB-231 breast.
Assay [10] relates to MOLT-4 leukemia.
Assay [11] has as its system NCI-H226 lung.
The test system of assay [12] is NCI-H23 lung.
For assay [13], the system named is NCI/ADR-RES ovarian.
Assay [14] concerns OVCAR-4 ovarian.
Assay [15] concerns RPMI-8226 leukemia.
For assay [16], the system named is RXF 393 renal.
The test system of assay [17] is SK-MEL-28 melanoma.
In assay [18] the test system is SK-OV-3 ovarian.

Turning to `CC(C#N)(c1ccccc1)N(CCc1ccccc1)C(=O)Oc1ccccc1` (stereo not given), the TGI in assay [1], in assay [2], in [3], in assay [4], in [5] and in assay [6] was > 100 µM each time. For the same compound, the TGI in assay [7], in [8], in [9], in [10], in [11] and in assay [12] was > 100 µM each time. The TGI in assay [13], in [14], in [15], in assay [16], in [17] and in assay [18] was > 100 µM throughout.
On to `O=C1C=CC2(C=C1)O[C@H](COCc1ccccc1)[C@@H](COCc1ccccc1)O2`, for which the TGI was found to be 34.1 µM in [1]; 5.88 µM in [2]; 3.35 µM in assay [3]; 2.99 µM in [4]; 3.03 µM in assay [5]; 14.3 µM in [6]. Moreover, the TGI came to 6.48 µM in assay [7]; 2.3 µM in [8]; 12.8 µM in assay [9]; 15.1 µM in assay [10]; 3.89 µM in assay [11]; 4.29 µM in [12]. Besides, the TGI in [13] was 3.71 µM; in [14], 4.66 µM; in assay [15], 1.94 µM; in [16] it was 1.31 µM; in [17], 3.57 µM; in [18], 29 µM.
In the case of `C=CCN1C(=O)CC2[C@@H]3CCc4cc(O)ccc4C3CC[C@]2(C)C1=O` (stereo not given in full), the TGI in [1], in assay [2], in assay [3], in assay [4], in [5] and in assay [6] was > 10 µM throughout. Also, the TGI in [7], in assay [8], in assay [9], in [10], in assay [11] and in [12] was > 10 µM in each case. The TGI in [13], in assay [14], in [15], in assay [16], in assay [17] and in [18] was > 10 µM each time.
Turning to `COC(=O)NC(=O)NC(Cc1ccccc1)NC(=O)OCc1ccccc1` (stereo not given), the TGI is 91.5 µM in [1]; > 100 µM in assay [2]; > 100 µM in assay [3]; > 100 µM in [4]; > 100 µM in assay [5]; > 100 µM in assay [6]. Also, the TGI in [7] was > 100 µM; in assay [8], > 100 µM; in assay [9], 78.1 µM; in assay [10], > 100 µM; in assay [11] it was > 100 µM; in assay [12] it was > 100 µM. Besides, the TGI in assay [13] was > 100 µM; in assay [14] it was > 100 µM; in assay [15], > 100 µM; in assay [16] it was 45.4 µM; in assay [17] it was > 100 µM; in assay [18], 57.5 µM.
With `CC(CN1NC12CCCC2)N1NC12CCCC2` (stereo not given), the TGI in assay [1], in [2], in assay [3], in assay [4], in assay [5] and in assay [6] was > 100 µM in each case. Moreover, the TGI in assay [7], in [8], in assay [9], in assay [10], in assay [11] and in [12] was > 100 µM in each case. Moreover, the TGI in assay [13], in [14], in assay [15], in [16], in assay [17] and in [18] was > 100 µM each time.
Regarding `O=C(CCC(=O)c1ccsc1)c1ccsc1`, the TGI in [1], in assay [2], in assay [3], in [4], in assay [5] and in assay [6] was > 100 µM each time. Also, the TGI in assay [7], in [8], in assay [9], in assay [10], in [11] and in assay [12] was > 100 µM each time. The TGI in assay [13], in assay [14], in assay [15], in [16], in assay [17] and in assay [18] was > 100 µM throughout.
As to `CC(=O)N1C=Cc2c(c(C)c3c([nH]c4ccccc43)c2C)C1`, the TGI in assay [1] came out at 28.3 µM; in [2] it was 25.4 µM; in assay [3] it was 19.1 µM; in assay [4], 4.99 µM; in assay [5], 17.9 µM; in assay [6] it was 12 µM. For the same compound, the TGI in assay [7] was 23.1 µM; in assay [8] it was 18.5 µM; in assay [9], 9.34 µM; in assay [10], > 100 µM; in assay [11] it was 31.9 µM; in [12] it was 20.4 µM. For the same compound, the TGI came out at 8.41 µM in [13]; 5.17 µM in assay [14]; 50.6 µM in assay [15]; 37.4 µM in [16]; 31.8 µM in [17]; 27 µM in assay [18].
Consider `N#Cc1cc2c(cc1C#N)SCCSCCCSCCS2`, for which the TGI in assay [1] is > 92.1 µM; in assay [2], > 57.8 µM; in assay [3], > 100 µM; in assay [4], 34.9 µM; in assay [5], 97.8 µM; in assay [6], > 100 µM. Besides, the TGI in assay [7] is > 65.1 µM; in assay [8], > 100 µM; in assay [9] it was 29 µM; in assay [10] it was > 100 µM; in assay [11] it was > 84.8 µM; in [12], 38.3 µM. Moreover, the TGI in [13] was > 100 µM; in [14], > 100 µM; in assay [15], > 100 µM; in assay [16] it was 18.1 µM; in [17] it was > 100 µM; in [18], 45.4 µM.
In the case of `COc1cc2nc(-c3cccs3)nc(Nc3cccc([N+](=O)[O-])c3)c2cc1OC`, the TGI in [1] was > 100 µM; in assay [2], 36.8 µM; in assay [3] it was 54.1 µM; in assay [4], 31.8 µM; in assay [5], 32.2 µM; in assay [6], 40.6 µM. In addition, the TGI in assay [7] was 35.2 µM; in assay [8] it was 59.1 µM; in assay [9] it was 35.9 µM; in assay [10], > 100 µM; in [11], 58.7 µM; in assay [12] it was 28.9 µM. In addition, the TGI in [13] is 46.9 µM; in assay [14], > 100 µM; in assay [15] it was 98.3 µM; in assay [16], 74.1 µM; in [17], 58 µM; in assay [18], 41.5 µM.
Take `CC(C)(C)C(=O)/C=C(\OB(F)F)C(C)(C)C`: the TGI in assay [1], in assay [2], in assay [3], in [4], in assay [5] and in assay [6] was > 100 µM throughout. Besides, the TGI in assay [7], in assay [8], in [9], in assay [10], in [11] and in assay [12] was > 100 µM throughout. Also, the TGI in assay [13], in [14], in assay [15], in assay [16], in assay [17] and in [18] was > 100 µM each time.
